Assay results as given in patent US20260085067A1, “CYCLIC SULFONAMIDE RIBONUCLEOTIDE REDUCTASE (RNR) INHIBITORS AND USES THEREOF” (Boundless Bio, Inc., priority 2022, published 2026).

What was measured:
[1] = tested on: pCHK1 (S345) in Colo320 DM cells; test: Alphalisa assay, detection of pCHK1 (S345) in Colo320 DM cells; format: cell-based, human; settings: Homo sapiens, COLO 320DM, compound overnight (approximately 16 hours)
Method in brief: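 Phospho-CHK1 (S345) read by AlphaLisa SureFire in lysates of human colorectal Colo320 DM cells. Compound treatment ran overnight (~16 h, 37 °C, DMSO <0.5%) on cells seeded the day before.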

[2] = target: T1, RNR (RNR1:RNR2 1:1) (Homo sapiens, UniProt P23921); test: RNR enzyme activity, rapid-fire mass spectrometry (RF/MS) assay; format: biochemical; settings: [RNR] 50 nM, 1:1 RNR1:RNR2; CDP 5 μM; ATP 1 mM; 37° C., 45 min; compounds screened up to 50 μM
T1 sequence (P23921 1-792): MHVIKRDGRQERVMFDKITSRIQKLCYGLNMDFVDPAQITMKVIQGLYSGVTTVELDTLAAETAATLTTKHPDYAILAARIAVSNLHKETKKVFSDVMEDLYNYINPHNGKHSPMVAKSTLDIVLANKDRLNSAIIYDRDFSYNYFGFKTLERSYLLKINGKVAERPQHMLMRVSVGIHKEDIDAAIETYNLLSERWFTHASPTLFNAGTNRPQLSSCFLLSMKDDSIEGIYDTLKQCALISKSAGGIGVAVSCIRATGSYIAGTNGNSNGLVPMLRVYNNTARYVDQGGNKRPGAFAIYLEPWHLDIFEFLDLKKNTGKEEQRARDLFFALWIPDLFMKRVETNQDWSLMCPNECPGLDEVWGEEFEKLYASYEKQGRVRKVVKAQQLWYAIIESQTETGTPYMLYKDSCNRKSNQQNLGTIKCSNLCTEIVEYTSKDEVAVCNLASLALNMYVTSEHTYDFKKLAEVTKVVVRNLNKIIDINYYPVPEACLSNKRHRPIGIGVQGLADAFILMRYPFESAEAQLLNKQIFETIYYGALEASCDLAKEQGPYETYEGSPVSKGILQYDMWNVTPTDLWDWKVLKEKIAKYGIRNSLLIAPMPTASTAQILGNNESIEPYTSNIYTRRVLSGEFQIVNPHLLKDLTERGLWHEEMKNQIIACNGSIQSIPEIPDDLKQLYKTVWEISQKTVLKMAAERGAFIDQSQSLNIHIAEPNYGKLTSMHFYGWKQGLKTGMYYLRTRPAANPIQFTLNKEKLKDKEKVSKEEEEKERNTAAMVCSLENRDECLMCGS
Method in brief: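 Human RNR (50 nM final, RNR1:RNR2 1:1) pre-incubated 15 min at room temperature, then reacted 45 min at 37 °C with 5 μM CDP and 1 mM ATP, no NADPH. Reaction quenched with 6% HCOOH; product quantified by rapid-fire mass spectrometry.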

IC50 [1] [nM]	IC50 [2] [nM]	Compound
≤ 1000	20 to 100	CC(=O)c1c(Cl)ccc2c1N(C)CN([C@H](c1n[nH]c(=O)o1)[C@H](C)c1c(F)ccc(C)c1C)S2(=O)=O [Example 64, 5-((1S,2R)-1-(5-acetyl-6-chloro-4-methyl-1,1-dioxido-3,4-dihydro-2H-benzo[e][1,2,4]thiadiazin-2-yl)-2-(6-fluoro-2,3-dimethylphenyl)propyl)-1,3,4-oxadiazol-2 (3H)-one]
≤ 1000	< 20	Cc1ccc(F)c([C@@H](C)[C@@H](c2n[nH]c(=O)o2)N2CN(C3CN(C)C3)c3cc(Cl)ccc3S2(=O)=O)c1C [Example 65, 5-((1S,2R)-1-(6-chloro-4-(1-methylazetidin-3-yl)-1,1-dioxido-3,4-dihydro-2H-benzo[e][1,2,4]thiadiazin-2-yl)-2-(6-fluoro-2,3-dimethylphenyl)propyl)-1,3,4-oxadiazol-2 (3H)-one]
10000 to 50000	20 to 100	Cc1ccc(F)c([C@@H](C)[C@@H](c2n[nH]c(=O)o2)N2CN(C)c3cc(O)ccc3S2(=O)=O)c1C [Example 66, 5-((1S,2R)-2-(6-fluoro-2,3-dimethylphenyl)-1-(6-hydroxy-4-methyl-1,1-dioxido-3,4-dihydro-2H-benzo[e][1,2,4]thiadiazin-2-yl)propyl)-1,3,4-oxadiazol-2 (3H)-one]
5000 to 10000	100 to 1000	Cc1ccc(F)c([C@@H](C)[C@@H](c2n[nH]c(=O)o2)N2CN(S(C)(=O)=O)c3cc(Cl)ccc3S2(=O)=O)c1C [Example 67, 5-((1S,2R)-1-(6-chloro-4-(methylsulfonyl)-1,1-dioxido-3,4-dihydro-2H-benzo[e][1,2,4]thiadiazin-2-yl)-2-(6-fluoro-2,3-dimethylphenyl)propyl)-1,3,4-oxadiazol-2 (3H)-one]
≤ 1000	20 to 100	Cc1ccc(F)c([C@@H](C)[C@@H](c2n[nH]c(=O)o2)N2CN(C)c3cc(Cl)cc(C(C)O)c3S2(=O)=O)c1C (stereo partly drawn) [Example 68, 5-((1S,2R)-1-(6-chloro-8-(1-hydroxyethyl)-4-methyl-1,1-dioxido-3,4-dihydro-2H-benzo[e][1,2,4]thiadiazin-2-yl)-2-(6-fluoro-2,3-dimethylphenyl)propyl)-1,3,4-oxadiazol-2 (3H)-one]
> 50000	1000 to 10000	COCc1cc2c(cc1Cl)OCCN([C@H](c1n[nH]c(=O)o1)[C@H](C)c1c(F)ccc(C)c1C)S2(=O)=O [Example 69, 5-((1S,2R)-1-(7-chloro-8-(methoxymethyl)-1,1-dioxido-3,4-dihydro-2H-benzo[b][,4,5]oxathiazepin-2-yl)-2-(6-fluoro-2,3-dimethylphenyl)propyl)-1,3,4-oxadiazol-2 (3H)-one]
1000 to 5000	20 to 100	COCc1cc(Cl)cc2c1S(=O)(=O)N([C@H](c1n[nH]c(=O)o1)[C@H](C)c1c(F)ccc(C)c1C)CN2C [Example 70, 5-((1S,2R)-1-(6-chloro-8-(methoxymethyl)-4-methyl-1,1-dioxido-3,4-dihydro-2H-benzo[e][1,2,4]thiadiazin-2-yl)-2-(6-fluoro-2,3-dimethylphenyl)propyl)-1,3,4-oxadiazol-2 (3H)-one]
≤ 1000	100 to 1000	COCc1cc(Cl)cc2c1S(=O)(=O)N([C@H](c1n[nH]c(=O)o1)[C@H](C)c1c(F)ccc(C)c1C)CCO2 [Example 71, 5-((1S,2R)-1-(7-chloro-9-(methoxymethyl)-1,1-dioxido-3,4-dihydro-2H-benzo[b][1,4,5]oxathiazepin-2-yl)-2-(6-fluoro-2,3-dimethylphenyl)propyl)-1,3,4-oxadiazol-2 (3H)-one]
≤ 1000	< 20	Cc1ccc(F)c([C@@H](C)[C@@H](c2n[nH]c(=O)o2)N2CN(C)c3cc(Cl)cc(CO)c3S2(=O)=O)c1C [Example 72, 5-((1S,2R)-1-(6-chloro-8-(hydroxymethyl)-4-methyl-1,1-dioxido-3,4-dihydro-2H-benzo[e][1,2,4]thiadiazin-2-yl)-2-(6-fluoro-2,3-dimethylphenyl)propyl)-1,3,4-oxadiazol-2 (3H)-one]
≤ 1000	< 20	Cc1ccc(F)c([C@@H](C)[C@@H](c2n[nH]c(=O)o2)N2CN(CCO)c3nc(Cl)ccc3S2(=O)=O)c1C [Example 73, 5-((1S,2R)-1-(6-chloro-4-(2-hydroxyethyl)-1,1-dioxido-3,4-dihydro-2H-pyrido[2,3-e][1,2,4]thiadiazin-2-yl)-2-(6-fluoro-2,3-dimethylphenyl)propyl)-1,3,4-oxadiazol-2 (3H)-one]
≤ 1000	< 20	Cc1ccc(F)c([C@@H](C)[C@@H](c2n[nH]c(=O)o2)N2CN([C@@H]3CCN(C)C3)c3cc(Cl)ccc3S2(=O)=O)c1C [Example 74, 5-((1S,2R)-1-(6-chloro-4-((R)-1-methylpyrrolidin-3-yl)-1,1-dioxido-3,4-dihydro-2H-benzo[e][1,2,4]thiadiazin-2-yl)-2-(6-fluoro-2,3-dimethylphenyl)propyl)-1,3,4-oxadiazol-2 (3H)-one]
1000 to 5000	< 20	Cc1ccc(F)c([C@@H](C)[C@@H](c2n[nH]c(=O)o2)N2CN(C)c3cc(Cl)cc(CBr)c3S2(=O)=O)c1C [Example 76, 5-((1S,2R)-1 (8-(bromomethyl)-6-chloro-4-methyl-1,1-dioxido-3,4-dihydro-2H-benzo[e][1,2,4]thiadiazin-2-yl)-2-(6-fluoro-2,3-dimethylphenyl)propyl)-1,3,4-oxadiazol-2 (3H)-one]
> 50000	100 to 1000	Cc1ccc(F)c([C@@H](C)[C@@H](c2n[nH]c(=O)o2)N2CCOc3cc(Cl)c(CO)cc3S2(=O)=O)c1C [Example 77, 5-((1S,2R)-1-(7-chloro-8-(hydroxymethyl)-1,1-dioxido-3,4-dihydro-2H-benzo[b][1,4,5]oxathiazepin-2-yl)-2-(6-fluoro-2,3-dimethylphenyl)propyl)-1,3,4-oxadiazol-2 (3H)-one]
≤ 1000	< 20	Cc1ccc(F)c([C@@H](C)[C@@H](c2n[nH]c(=O)o2)N2CCOc3cc(Cl)cc(CO)c3S2(=O)=O)c1C [Example 78, 5-((1S,2R)-1-(7-chloro-9-(hydroxymethyl)-1,1-dioxido-3,4-dihydro-2H-benzo[b][1,4,5]oxathiazepin-2-yl)-2-(6-fluoro-2,3-dimethylphenyl)propyl)-1,3,4-oxadiazol-2 (3H)-one]
≤ 1000	< 20	Cc1ccc(F)c([C@@H](C)[C@@H](c2n[nH]c(=O)o2)N2CN(CCCO)c3cc(Cl)ccc3S2(=O)=O)c1C [Example 79, 5-((1S,2R)-1-(6-chloro-4-(3-hydroxypropyl)-1,1-dioxido-3,4-dihydro-2H-benzo[e][1,2,4]thiadiazin-2-yl)-2-(6-fluoro-2,3-dimethylphenyl)propyl)-1,3,4-oxadiazol-2 (3H)-one]
≤ 1000	< 20	Cc1ccc(F)c([C@@H](C)[C@@H](c2n[nH]c(=O)o2)N2CN(CCN3CCCC3)c3cc(Cl)ccc3S2(=O)=O)c1C [Example 80, 5-((1S,2R)-1-(6-chloro-1,1-dioxido-4-(2-(pyrrolidin-1-yl)ethyl)-3,4-dihydro-2H-benzo[e][1,2,4]thiadiazin-2-yl)-2-(6-fluoro-2,3-dimethylphenyl)propyl)-1,3,4-oxadiazol-2 (3H)-one]
≤ 1000	< 20	Cc1ccc(F)c([C@@H](C)[C@@H](c2n[nH]c(=O)o2)N2CN(CC(F)F)c3nc(Cl)ccc3S2(=O)=O)c1C [Example 81, 5-[(1S,2R)-1-[6-chloro-4-(2,2-difluoroethyl)-1,1-dioxo-3H-pyrido[2,3-e][1,2,4]thiadiazin-2-yl]-2-(6-fluoro-2,3-dimethyl-phenyl)propyl]-3H-1,3,4-oxadiazol-2-one]
≤ 1000	< 20	Cc1ccc(F)c([C@@H](C)[C@@H](c2n[nH]c(=O)o2)N2CN(CCCO)c3nc(Cl)ccc3S2(=O)=O)c1C [Example 82, 5-[(1S,2R)-1-[6-chloro-4-(3-hydroxypropyl)-1,1-dioxo-3H-pyrido[2,3-e][1,2,4]thiadiazin-2-yl]-2-(6-fluoro-2,3-dimethyl-phenyl)propyl]-3H-1,3,4-oxadiazol-2-one]
≤ 1000	< 20	Cc1ccc(F)c([C@@H](C)[C@@H](c2n[nH]c(=O)o2)N2CN(CC3COC3)c3cc(Cl)ccc3S2(=O)=O)c1C [Example 83, 5-((1S,2R)-1-(6-chloro-4-(oxetan-3-ylmethyl)-1,1-dioxido-3,4-dihydro-2H-benzo[e][1,2,4]thiadiazin-2-yl)-2-(6-fluoro-2,3-dimethylphenyl)propyl)-1,3,4-oxadiazol-2 (3H)-one]
